Experimental findings from US6649367B2, “Human cancer cell line malignantly altered by expression of angiogenic factor” (Eisai Co., Ltd, priority 2001, dated 2003) are described below.

The test has as its system KP-1/VEGF cells. In words: Effect on in vivo angiogenesis induced by KP-1/VEGF (chamber transplanted in mouse dorsal air sac, 51Cr-labelled blood cells). The settings on record: for In vivo angiogenesis-inducing activity (volume of blood vessel): C57BL/6N mouse, KP-1/VEGF chamber, four days after transplantation; for In vivo angiogenesis inhibitory effect: =(X−B)/(A−B)×100, A control, B collagen, X administered group. The method, then:
3×10^6 cells/0.17 ml suspension of KP-1/VEGF cells was prepared using a collagen solution. In a chamber formed by adhering 0.45-μm Durapore filter membrane (Millipore) to a chamber ring (Millipore), 0.17 ml of the suspension was injected through the injection inlet and sealed. An air sac of about 10 ml was formed on dorsal subcutaneous portion of a 6-week-old female C57BL/6N mouse under anesthesia and the chamber enclosing the cells therein was transplanted in the air sac.
From the day of transplantation, ZD6474 as a VEGFR kinase inhibitor and ZD1839(Iressa) as an EGFR kinase inhibitor were each orally administered in dosage of 25, 50 or 100 mg/kg once a day for 4 days.
Four days after the transplantation, 2,500,000 cpm/ml of blood cell suspension prepared by labeling the cells with sodium chromate (^51Cr) (Amersham Pharmacia) was injected in an amount of 0.2 ml each through the tail vein of the chamber-transplanted mouse, and then the skin portion contacting the chamber was cut out and the radioactivity thereof was measured by use of a γ-counter. From the measured radioactivity, the amount of blood (volume of blood vessel) was calculated and was used as an index of in vivo angiogenesis-inducing activity.
Further, providing that the in vivo angiogenesis-inducing activity of control is A, the in vivo angiogenesis-inducing activity of collagen is B, and the in vivo angiogenesis-inducing activity of each administered group is X, in vivo angiogenesis inhibitory effect was obtained by the following equation. In vivo angiogenesis inhibitory effect (%)

Setting [1] is: 25 mg/kg orally once a day for 4 days.
The mark [2] stands for this setting: 50 mg/kg orally once a day for 4 days.
The mark [3] stands for this setting: 100 mg/kg orally once a day for 4 days.

With `COc1cc2ncnc(Nc3ccc(F)c(Cl)c3)c2cc1OCCCN1CCOCC1` [ZD1839], the “In vivo angiogenesis-inducing activity (volume of blood vessel)” value is, setting by setting: under setting [1], 2.75 ± 0.66 µL; under setting [2], 2.77 ± 0.47 µL; under setting [3], 2.76 ± 0.73 µL.

As to `COc1cc2c(Nc3ccc(Br)cc3F)ncnc2cc1OCC1CCN(C)CC1` [ZD6474], the “In vivo angiogenesis inhibitory effect” value runs as follows: under setting [1], 68.0%; under setting [2], 40.8%; under setting [3], −10.9%. In addition, the “In vivo angiogenesis-inducing activity (volume of blood vessel)” value was found to be 2.56 ± 0.26 µL under setting [1], 2.18 ± 0.38 µL under setting [2] and 1.47 ± 0.40 µL under setting [3].
